Laboratory results published in EP3353259B1, “SILYL MODIFIED POLYMER SEALANT” (Strongbond B.V., priority 2015, dated 2017).

Legend:
[1] = Cure of MS-kit with 4-dodecylbenzenesulfonic acid (comparative example 1a-b); type: physicochemical
Method: (§1) All ingredients except the Tegokat are added to a Hauschild cup and mixed in a Hauschild mixer for 60 seconds. Than the catalyst is added and mixed for another 30 seconds. Additionally UV- and light stabilizers, pigments etc. may be added in the first or second step.

[2] = Method: as §1
In fig.6 the degradation time in hours at 150°C is plotted versus the time in days prior to cure at 40°C. On the horizontal axis the time the sealant was stored at 40°C before cure in days is given, showing the storage stability of the anti-oxidant, and on the vertical axis the time in hours to degradation at 150°C, showing the effectiveness of the anti-oxidant after storage of the sealant. This test may be seen as a stress test for both storage stability of the sealant as subsequent oxidation stability. The line represents the present situation using Irganox 1135 commonly applied in the sealant.
In fig. 8 a similar test as in fig. 6 is performed with the above mentioned anti-oxidants.
At present samples have been tested of a commercial STP (or SMP) sealant containing Irganox 1035, Irganox 1330 and a mixture thereof. The total antioxidant content of all samples is 4 g/kg STP polymer. The samples are stored in an oven at 40°C. The degradation times are determined at 150°C as a function of storage time. Furthermore, tensile tests are performed directly and after dumbbells used in said tests are exposed to 100°C for 1000 hours. This is done on freshly prepared sealants and sealants that have been stored at 40°C for 4 weeks.

[3] = Oxidation resistance of MS-kit with dodecylsulfide (comparative example 2a-d); type: physicochemical; conditions: up to 5% added to a standard mix with and without Irganox 1135, compared to standard mixture without dodecylsulfide
Method: Up to 5% dodecylsulfide was added to a standard mix with and without Irganox 1135. No change in oxidation resistance was found compared to the standard mixture with or without Irganox 1135 not containing dodecylsulfide.

Row | cure ([1]; added instead of a tin-catalyst) | Degradation time after 7 days @ 40°C [2] | Initial degradation Time [2] | Relative decrease degradation time after 7days @ 40°C [2] | oxidation resistance [3] | Compound | cure ([1]; after addition of a tin catalyst)
1 | no cure was observed | – | – | – | – | CCCCCCCCCCCCc1ccc(S(=O)(=O)O)cc1 [4-dodecylbenzenesulfonic acid] | behaved as without 4-dodecylbenzenesulfonic acid
2 | – | 2 h | 9 h | 22% | – | Cc1cc(CCC(=O)OCCOCCOCCOC(=O)CCc2cc(C)c(O)c(C(C)(C)C)c2)cc(C(C)(C)C)c1O [Irganox 245] | –
3 | – | 9 h | 16 h | 56% | – | CCCCCCCCSc1nc(Nc2cc(C(C)(C)C)c(O)c(C(C)(C)C)c2)nc(SCCCCCCCC)n1 [Irganox 565] | –
4 | – | 3 h | 24 h | 13% | – | CC(C)(C)c1cc(CCC(=O)OCC(COC(=O)CCc2cc(C(C)(C)C)c(O)c(C(C)(C)C)c2)(COC(=O)CCc2cc(C(C)(C)C)c(O)c(C(C)(C)C)c2)COC(=O)CCc2cc(C(C)(C)C)c(O)c(C(C)(C)C)c2)cc(C(C)(C)C)c1O [Irganox 1010] | –
5 | – | 2 h | 16 h | 13% | – | CC(C)(C)c1cc(CCC(=O)OCCSCCOC(=O)CCc2cc(C(C)(C)C)c(O)c(C(C)(C)C)c2)cc(C(C)(C)C)c1O [Irganox 1035] | –
6 | – | 21 h | 34 h | 62% | – | Cc1c(Cc2cc(C(C)(C)C)c(O)c(C(C)(C)C)c2)c(C)c(Cc2cc(C(C)(C)C)c(O)c(C(C)(C)C)c2)c(C)c1Cc1cc(C(C)(C)C)c(O)c(C(C)(C)C)c1 [Irganox 1330] | –
7 | – | – | – | – | No change | CCCCCCCCCCCCSCCCCCCCCCCCC [dodecylsulfide] | –
